Test [1] deals with T1, human Endothelial Differentiation G-protein Coupled Receptor 3 (EDG3), S1P3 receptor (Homo sapiens, UniProt Q99500).
T1 construct: expressed in transfected cells; host or cells: GeneBLAzer EDG3-Ga15-NFAT-bla HEK 293T
Put plainly: S1P3 Assay (GeneBLAzer EDG3-Ga15-NFAT-bla HEK 293T beta-lactamase reporter, agonist dose response). In kind it is cell-based. As to conditions: EDG3-Ga15-NFAT-bla HEK 293T cells, blue/green emission ratio, 10 point dose response, free base or salt form; read-out: pEC50 (S1P3 assay) (converted). The procedure, abridged: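 HEK 293T cells stably expressing human EDG3 with Ga15 and NFAT-beta-lactamase reporter, ~10,000 cells/well, exposed overnight at 37 °C to 10-point compound doses in charcoal-stripped serum medium. CCF4-AM substrate loaded 2 h at room temperature; 460/530 nm ratio normalized to DMSO and agonist controls, sigmoidal fit; intrinsic activity relative to reference agonist maximum (100%).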

The target of test [2] is T2, human Endothelial Differentiation Gene 1 (EDG1), S1P1 receptor (Homo sapiens, UniProt P21453).
T2 construct: TEV protease site; Gal4-VP16 transcription factor; expressed in transfected cells; host or cells: EDG1-bla/U2OS (Tango GPCR-bla U2OS parental cell line)
T2 sequence (P21453 whole entry, the tested form may be a part): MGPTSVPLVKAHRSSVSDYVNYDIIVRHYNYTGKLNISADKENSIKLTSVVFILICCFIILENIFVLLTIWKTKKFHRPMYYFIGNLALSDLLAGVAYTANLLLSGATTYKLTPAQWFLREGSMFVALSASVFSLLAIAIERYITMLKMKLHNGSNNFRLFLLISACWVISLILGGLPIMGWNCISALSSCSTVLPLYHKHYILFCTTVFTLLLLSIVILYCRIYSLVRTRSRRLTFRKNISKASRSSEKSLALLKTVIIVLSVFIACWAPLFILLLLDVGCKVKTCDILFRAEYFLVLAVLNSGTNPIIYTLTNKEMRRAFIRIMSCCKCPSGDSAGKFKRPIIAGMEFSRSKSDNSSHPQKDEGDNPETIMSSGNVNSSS
Put plainly: S1P1 Assay (Tango EDG1-bla/U2OS beta-lactamase reporter, agonist dose response). It counts as cell-based. As to conditions: EDG1-bla/U2OS cells, blue/green emission ratio, 10 point dose response, free base or salt form; read-out: pEC50 (S1P1 assay) (converted). In outline:
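U2OS Tango cells with human EDG1 coupled to TEV site/Gal4-VP16 beta-lactamase reporter, serum-starved 24 h, then exposed overnight at 37 °C to 10-point compound dilutions. CCF4-AM FRET substrate 2 h RT; 460/530 nm ratio normalised to agonist and DMSO controls, sigmoidal fit; intrinsic activity relative to a reference compound set at 100%.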

Where a name gives a salt, the structure may show the parent alone.

T1 sequence (Q99500 whole entry): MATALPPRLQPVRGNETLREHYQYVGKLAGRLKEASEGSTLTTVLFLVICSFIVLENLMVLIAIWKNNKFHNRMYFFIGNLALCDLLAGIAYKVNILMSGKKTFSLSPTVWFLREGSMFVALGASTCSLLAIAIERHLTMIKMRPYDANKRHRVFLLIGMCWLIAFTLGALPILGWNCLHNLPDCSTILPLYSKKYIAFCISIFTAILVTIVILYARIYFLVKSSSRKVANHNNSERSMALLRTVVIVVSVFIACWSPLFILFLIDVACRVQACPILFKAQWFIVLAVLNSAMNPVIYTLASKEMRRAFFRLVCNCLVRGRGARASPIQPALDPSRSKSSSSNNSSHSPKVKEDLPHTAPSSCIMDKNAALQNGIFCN

As to `CCc1c(CCN2CCC[C@H]2C(=O)O)cccc1-c1nnc(-c2ccc(CC(C)C)c(C#N)c2)s1` [Example 59, 1-[2-(3-{5-[3-cyano-4-(2-methylpropyl)phenyl]-1,3,4-thiadiazol-2-yl}-2-ethylphenyl)ethyl]-L-proline], the figures for the EC50 in test [1] and in test [2] were over 10000 nM and at most 10 nM, respectively.

Turning to `CCc1c(CCN2CCC(C(=O)O)C2)cccc1-c1nnc(-c2ccc(CC(C)C)c(C#N)c2)s1` (stereo not drawn) [Example 61], the EC50 in test [1] is over 3160 nM; in test [2], under 1 nM.

Regarding `CCc1c(CCN2CC[C@H](C(=O)O)C2)cccc1-c1nnc(-c2ccc(CC(C)C)c(C#N)c2)s1` [Example 62], the EC50 is over 3160 nM in test [1] and under 1 nM in test [2].

As to `CCc1c(CCN2CCCC(C(=O)O)C2)cccc1-c1nnc(-c2ccc(CC(C)C)c(C#N)c2)s1` (stereo not drawn) [Example 63], the values for the EC50 in test [1] and in test [2] were over 3160 nM and under 1 nM, respectively.

Consider `CCc1c(CCN2CCC[C@H](C(=O)O)C2)cccc1-c1nnc(-c2ccc(CC(C)C)c(C#N)c2)s1` [Example 64], for which the EC50 in test [1] was over 3160 nM; in test [2], under 1 nM.

On to `CCc1c(CCN2CCC[C@H]2C(=O)O)cccc1-c1nsc(-c2ccc(OC(C)C)c(Cl)c2)n1` [Example 65, 1-{2-[3-(5-{3-chloro-4-[(1-methylethyl)oxy]phenyl}-1,2,4-thiadiazol-3-yl)-2-ethylphenyl]ethyl}-L-proline trifluoroacetate], for which the EC50 in test [1] was over 3160 nM; in test [2], at most 10 nM.

Turning to `CCc1c(CCN2C[C@H](O)C[C@H]2C(=O)O)cccc1-c1nsc(-c2ccc(OC(C)C)c(Cl)c2)n1` [Example 69], the EC50 in test [1] was over 3160 nM; in test [2], under 1 nM.

Regarding `CCc1c(CCN2CCCC(C(=O)O)C2)cccc1-c1nsc(-c2ccc(OC(C)C)c(Cl)c2)n1` (stereo not drawn) [Example 70], the EC50 in test [1] is over 3160 nM; in test [2] it was under 1 nM.

In the case of `CCc1c(CCN2CCC(CC(=O)O)CC2)cccc1-c1nsc(-c2ccc(OC(C)C)c(Cl)c2)n1` [Example 72], the EC50 is over 3160 nM in test [1] and at most 10 nM in test [2].

For the molecule `COc1c(CCN2CCC(C(=O)O)CC2)cccc1-c1nsc(-c2ccc(OC(C)C)c(Cl)c2)n1` [Example 73, 1-{2-[3-(5-{3-chloro-4-[(1-methylethyl)oxy]phenyl}-1,2,4-thiadiazol-3-yl)-2-(methyloxy)phenyl]ethyl}-4-piperidinecarboxylic acid trifluoroacetate], the values for the EC50 in test [1] and in test [2] were over 3160 nM and at most 10 nM, respectively.

With `Cc1c(CCN2CCC(C(=O)O)CC2)cccc1-c1nsc(-c2ccc(OC(C)C)c(Cl)c2)n1` [Example 74, 1-{2-[3-(5-{3-chloro-4-[(1-methylethyl)oxy]phenyl}-1,2,4-thiadiazol-3-yl)-2-methylphenyl]ethyl}-4-piperidinecarboxylic acid], the figures for the EC50 in test [1] and in test [2] were over 3160 nM and under 1 nM, respectively.

With `CCc1c(CCN2CCC(C(=O)O)CC2)cccc1-c1nsc(-c2cnc(OC(C)C)c(Cl)c2)n1` [Example 75, 1-{2-[3-(5-{5-chloro-6-[(1-methylethyl)oxy]-3-pyridinyl}-1,2,4-thiadiazol-3-yl)-2-ethylphenyl]ethyl}-4-piperidinecarboxylic acid trifluoroacetate], the figures for the EC50 in test [1] and in test [2] were over 3160 nM and at most 10 nM, respectively.

With `CCc1c(CCN2CCC[C@H]2C(=O)O)cccc1-c1nsc(-c2ccc(CC(C)C)c(C#N)c2)n1` [Example 76, 1-[2-(3-{5-[3-cyano-4-(2-methylpropyl)phenyl]-1,2,4-thiadiazol-3-yl}-2-ethylphenyl)ethyl]-L-proline trifluoroacetate], the values for the EC50 in test [1] and in test [2] were over 3160 nM and at most 10 nM, respectively.

As for `CCc1c(CCN2CCC(C(=O)O)C2)cccc1-c1nsc(-c2ccc(CC(C)C)c(C#N)c2)n1` (stereo not drawn) [Example 78], the EC50 in test [1] is over 3160 nM; in test [2], at most 10 nM.

For the molecule `CCc1c(CCN2CC[C@H](C(=O)O)C2)cccc1-c1nsc(-c2ccc(CC(C)C)c(C#N)c2)n1` [Example 79], the EC50 in test [1] was over 3160 nM; in test [2], at most 10 nM.

Take `CCc1c(CCN2CCC[C@H](C(=O)O)C2)cccc1-c1nsc(-c2ccc(CC(C)C)c(C#N)c2)n1` [Example 80]: the values for the EC50 in test [1] and in test [2] were over 3160 nM and under 1 nM, respectively.

On to `CCc1c(CN2CCC(C(=O)O)C2)cccc1-c1cnc(-c2ccc(OC(C)C)c(C#N)c2)s1` (stereo not drawn) [Example 83], for which the EC50 in test [1] is over 10000 nM; in test [2], at most 10 nM.

Turning to `CCc1c(CN2CC[C@H](C(=O)O)C2)cccc1-c1cnc(-c2ccc(OC(C)C)c(C#N)c2)s1` [Example 84], the values for the EC50 in test [1] and in test [2] were over 10000 nM and at most 10 nM, respectively.

Turning to `CCc1c(CN2CCC(CC(=O)O)CC2)cccc1-c1cnc(-c2ccc(OC(C)C)c(C#N)c2)s1` [Example 87], the EC50 was over 10000 nM in test [1] and under 100 nM in test [2].

Take `CCc1c(CCN2CCC[C@H]2C(=O)O)cccc1-c1cnc(-c2ccc(OC(C)C)c(C#N)c2)s1` [Example 88, 1-{2-[3-(2-{3-cyano-4-[(1-methylethyl)oxy]phenyl}-1,3-thiazol-5-yl)-2-ethylphenyl]ethyl}-L-proline trifluoroacetate]: the figures for the EC50 in test [1] and in test [2] were over 10000 nM and at most 10 nM, respectively.

For `CCc1c(CCN2C[C@H](O)C[C@H]2C(=O)O)cccc1-c1cnc(-c2ccc(OC(C)C)c(C#N)c2)s1` [Example 91], the EC50 is over 10000 nM in test [1] and at most 10 nM in test [2].

Consider `CCc1c(CCN2CCCC(C(=O)O)C2)cccc1-c1cnc(-c2ccc(OC(C)C)c(C#N)c2)s1` (stereo not drawn) [Example 92], for which the EC50 in test [1] is over 3160 nM; in test [2], under 1 nM.

Take `CCc1c(CCCN2CC(C(=O)O)C2)cccc1-c1cnc(-c2ccc(OC(C)C)c(C#N)c2)s1` [Example 93, 1-{3-[3-(2-{3-cyano-4-[(1-methylethyl)oxy]phenyl}-1,3-thiazol-5-yl)-2-ethylphenyl]propyl}-3-azetidinecarboxylic acid trifluoroacetate]: the EC50 in test [1] was over 3160 nM; in test [2], under 1 nM.

In the case of `CCc1c(CCCN2CCC(C(=O)O)C2)cccc1-c1cnc(-c2ccc(OC(C)C)c(C#N)c2)s1` (stereo not drawn) [Example 94], the results for the EC50 in test [1] and in test [2] were over 3160 nM and at most 10 nM, respectively.

Regarding `CCc1c(-c2nsc(-c3ccc(OC(C)C)c(Cl)c3)n2)cccc1C1CCN(CC(=O)O)CC1` [Example 99, {4-[3-(5-{3-chloro-4-[(1-methylethyl)oxy]phenyl}-1,2,4-thiadiazol-3-yl)-2-ethylphenyl]-1-piperidinyl}acetic acid trifluoroacetate], the EC50 in test [1] is over 3160 nM; in test [2] it was at most 10 nM.

In the case of `CCc1c(-c2nsc(-c3ccc(OC(C)C)c(Cl)c3)n2)cccc1C1CCN(CCC(=O)O)CC1` [Example 100, 3-{4-[3-(5-{3-chloro-4-[(1-methylethyl)oxy]phenyl}-1,2,4-thiadiazol-3-yl)-2-ethylphenyl]-1-piperidinyl}propanoic acid], the EC50 in test [1] is over 10000 nM; in test [2], at most 10 nM.

As to `CCc1c(-c2nsc(-c3ccc(OC(C)C)c(Cl)c3)n2)cccc1C1CCN(CCCC(=O)O)CC1` [Example 102, 4-{4-[3-(5-{3-chloro-4-[(1-methylethyl)oxy]phenyl}-1,2,4-thiadiazol-3-yl)-2-ethylphenyl]-1-piperidinyl}butanoic acid trifluoroacetate], the EC50 in test [1] is over 10000 nM; in test [2], at most 10 nM.

For the origin of these results see patent US8389508B2 (Glaxo Group Limited, priority 2010, dated 2013).
